Results published in article PMC6630796, “Spiroindolone Analogues as Potential Hypoglycemic with Dual Inhibitory Activity on α-Amylase and α-Glucosidase” (Molecules, 2019).

Assays:
[1] = target: T1, α-amylase from Aspergillus oryzae (Aspergillus oryzae, UniProt P0C1B3); experiment: biochemical; conditions: for α-Amylase Selectivity: IC50 (α-glucosidase)/IC50 (α-amylase)
T1 construct: purchased Sigma Aldrich
Experimental: Briefly, 250 μL (0.4 mg/mL) of sample was preincubated with 250 μL of α-amylase solution for 10 min at 25 °C in one set of tubes. In another set of tubes α-amylase was preincubated with 250 μL of phosphate buffer (pH 6.9). 250 μL of starch solution at increasing concentrations (0.2–1% (w/v)) was added to both sets of reaction mixtures to start the reaction. The mixture was then incubated for 10 min at 25 °C and then boiled for 15 min after the addition of 250 μL of DNS to stop the reaction. The amount of reducing sugars released was determined spectrophotometrically using a maltose standard curve and converted to reaction velocities.
(§1) The inhibitory concentration 50% (IC50) values were determined from the plots of percent inhibition versus log inhibitor concentration and calculated by logarithmic regression analysis from the mean inhibitory values.

[2] = target: T2, α-Glucosidase type 1 from baker’s yeast (Saccharomyces cerevisiae, UniProt P53341); experiment: α-Glucosidase inhibition assay (p-nitrophenyl α-D-glucopyranoside, 405 nm); type: biochemical; conditions: for α-Glucosidase Selectivity: IC50 (α-amylase)/IC50 (α-glucosidase)
T2 construct: purchased Sigma-Aldrich G5003
Experimental: Sodium phosphate buffer (0.1 M) was adjusted by 0.1 N HCl to pH 7.0 with a pH meter (Thermo Fisher Scientific Inc., Waltham, MA, USA). p-Nitrophenyl α-D-glucopyranoside (10 mM) and α-glucosidase solutions (1 U/mL) were solubilized in 0.1 M sodium phosphate buffer (pH 7.0). All the reagents were manufactured shortly before use and warmed to 37 °C in a water bath. Sodium phosphate buffer (0.1 M, 158 μL per well) was added to a 96-well plate. α-Glucosidase (20 μL) and 2 μL of sample were added to 20 μL of p-nitrophenyl α-D-glucopyranoside. In the 200-μL final reaction volume (0.02 U/well, 0.1 U/mL) the substrate concentration was adjusted to […]. The background signal due to the sample color was measured at 405 nm with the PerkinElmer Wallac Victor3 spectrophotometer (PerkinElmer, Waltham, MA, USA) prior to adding the enzyme. Immediately following α-glucosidase addition, absorbance was measured at 405 nm 8 times at 1 min intervals.
as §1

T2 sequence (P53341 whole entry): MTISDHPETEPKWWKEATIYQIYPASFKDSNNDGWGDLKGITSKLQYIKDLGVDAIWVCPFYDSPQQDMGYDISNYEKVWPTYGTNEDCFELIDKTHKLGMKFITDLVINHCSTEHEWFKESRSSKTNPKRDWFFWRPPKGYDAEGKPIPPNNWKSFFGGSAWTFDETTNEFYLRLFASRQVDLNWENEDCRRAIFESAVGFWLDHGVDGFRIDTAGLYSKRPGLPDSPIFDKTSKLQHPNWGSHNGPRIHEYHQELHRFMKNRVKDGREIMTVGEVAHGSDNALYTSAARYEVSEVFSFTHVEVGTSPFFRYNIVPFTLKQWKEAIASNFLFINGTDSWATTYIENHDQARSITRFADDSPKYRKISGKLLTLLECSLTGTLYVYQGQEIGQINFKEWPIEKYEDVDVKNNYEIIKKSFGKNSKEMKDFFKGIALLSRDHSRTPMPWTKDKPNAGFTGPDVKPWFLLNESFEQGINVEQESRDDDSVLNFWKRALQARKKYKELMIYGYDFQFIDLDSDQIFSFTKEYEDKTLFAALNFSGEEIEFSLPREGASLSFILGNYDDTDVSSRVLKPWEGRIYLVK

In the case of `O=C(c1ccccc1)C1C(c2cc3ccccc3o2)C2CSCN2[C@@]12C(=O)Nc1ccc(Cl)cc12` (stereo partly drawn) [Compound 5a, (3S)-7′-(Benzofuran-2-yl)-6′-benzoyl-5-chloro-1′,6′,7′,7a′-tetrahydro-3′H-spiro[indoline-3,5′-pyrrolo[1,2-c]thiazol]-2-one], the IC50 [1] is reported as 693.22 ± 0.1 µM, the “α-Amylase Selectivity” value [1] is reported as 0.67 and the melting point is reported as 132 to 133 °C. For the same compound, the IC50 [2] was 465.12 ± 0.12 µM and the “α-Glucosidase Selectivity” value [2] was 1.49.

`O=C(c1ccccc1)C1C(c2cc3ccccc3o2)C2C3CCCCC3CN2[C@@]12C(=O)Nc1ccc(Cl)cc12` (stereo partly drawn) [Compound 5b, (3S)-1′-(Benzofuran-2-yl)-2′-benzoyl-5-chloro-1′,2′,5′,5a′,6′,7′,8′,9′,9a′,9b′-decahydrospiro[indoline-3,3′-pyrrolo[2,1-a]isoindol]-2-one] gave a melting point of 120 to 122 °C.

In the case of `O=C(c1ccc(F)cc1)C1C(c2cc3ccccc3o2)C2CSCN2[C@@]12C(=O)Nc1ccc(Cl)cc12` (stereo partly drawn) [Compound 5c, (3S)-7′-(Benzofuran-2-yl)-5-chloro-6′-(4-fluorobenzoyl)-1′,6′,7′,7a′-tetrahydro-3′H-spiro[indoline-3,5′-pyrrolo[1,2-c]thiazol]-2-one], the IC50 [1] is reported as 718 ± 0.27 µM, the “α-Amylase Selectivity” value [1] is reported as 0.81 and the melting point is reported as 110 to 112 °C. For the same compound, the IC50 [2] was 585.11 ± 0.02 µM and the “α-Glucosidase Selectivity” value [2] was 1.22.

`O=C(c1ccc(F)cc1)C1C(c2cc3ccccc3o2)C2C3CCCCC3CN2[C@@]12C(=O)Nc1ccc(Cl)cc12` (stereo partly drawn) [Compound 5d, (3S)-1′-(benzofuran-2-yl)-5-chloro-2′-(4-fluorobenzoyl)-1′,2′,5′,5a′,6′,7′,8′,9′,9a′,9b′-decahydrospiro-[indoline-3,3′-pyrrolo[2,1-a]isoindol]-2-one] showed a melting point of 125 to 127 °C.

Work on `O=C(c1ccc(F)cc1)C1C(c2cc3ccccc3o2)C2C3CCCCC3CN2[C@@]12C(=O)Nc1ccc(Br)cc12` (stereo partly drawn) [Compound 5e, (3S)-1′-(Benzofuran-2-yl)-5-bromo-2′-(4-fluorobenzoyl)-1′,2′,5′,5a′,6′,7′,8′,9′,9a′,9b′-decahydrospiro-[indoline-3,3′-pyrrolo[2,1-a]isoindol]-2-one] yielded a melting point of 125 to 127 °C.

`O=C(c1ccc(Br)cc1)C1C(c2cc3ccccc3o2)C2C3CCCCC3CN2[C@@]12C(=O)Nc1ccc(Cl)cc12` (stereo partly drawn) [Compound 5f, (3S)-1′-(Benzofuran-2-yl)-2′-(4-bromobenzoyl)-5-chloro-1′,2′,5′,5a′,6′,7′,8′,9′,9a′,9b′-decahydrospiro-[indoline-3,3′-pyrrolo[2,1-a]isoindol]-2-one] showed a melting point of 120 to 121 °C.

For `O=C(c1ccc(Br)cc1)C1C(c2cc3ccccc3o2)C2CSCN2[C@@]12C(=O)Nc1ccc(Br)cc12` (stereo partly drawn) [Compound 5h, (3S)-7′-(Benzofuran-2-yl)-5-bromo-6′-(4-bromobenzoyl)-1′,6′,7′,7a′-tetrahydro-3′H-spiro[indoline-3,5′-pyrrolo[1,2-c]thiazol]-2-one], the IC50 [1] was 589.04 ± 0.25 µM, the “α-Amylase Selectivity” value [1] was 0.83 and the melting point was 118 to 120 °C. For the same compound, the IC50 [2] was 494.1 ± 0.04 µM and the “α-Glucosidase Selectivity” value [2] was 1.19.

With `O=C(c1ccc(Br)cc1)C1C(c2cc3ccccc3o2)C2CSCN2[C@@]12C(=O)Nc1ccc(Cl)cc12` (stereo partly drawn) [Compound 5i, (3S)-7′-(Benzofuran-2-yl)-6′-(4-bromobenzoyl)-5-chloro-1′,6′,7′,7a′-tetrahydro-3′H-spiro[indoline-3,5′-pyrrolo[1,2-c]thiazol]-2-one] the IC50 [1] was 779.08 ± 0.51 µM, the “α-Amylase Selectivity” value [1] was 0.87 and the melting point was 144 to 145 °C. The IC50 [2] was 684.12 ± 0.35 µM and the “α-Glucosidase Selectivity” value [2] was 1.13.

For `O=C(c1ccc(C(F)(F)F)cc1)C1C(c2cc3ccccc3o2)C2CSCN2[C@@]12C(=O)Nc1ccc(Cl)cc12` (stereo partly drawn) [Compound 5l, (3S)-7′-(Benzofuran-2-yl)-5-chloro-6′-(4-(trifluoromethyl)benzoyl)-1′,6′,7′,7a′-tetrahydro-3′H-spiro-[indoline-3,5′-pyrrolo[1,2-c]thiazol]-2-one], the IC50 [1] was 558.07 ± 0.18 µM, the “α-Amylase Selectivity” value [1] was 0.74 and the melting point was 110 to 112 °C. It also gave an IC50 [2] of 414.1 ± 0.52 µM.

`O=C(c1ccc(F)cc1)C1C(c2cc3ccccc3o2)C2C3CCCCC3CN2[C@@]12C(=O)Nc1ccccc12` (stereo partly drawn) [Compound 5m, (3S)-1′-(Benzofuran-2-yl)-2′-(4-fluorobenzoyl)-1′,2′,5′,5a′,6′,7′,8′,9′,9a′,9b′-decahydrospiro[indoline-3,3′-pyrrolo[2,1-a]isoindol]-2-one] gave a melting point of 137 to 138 °C.

With `O=C(c1ccc(Br)cc1)C1C(c2cc3ccccc3o2)C2C3CCCCC3CN2[C@@]12C(=O)Nc1ccccc12` (stereo partly drawn) [Compound 5n, (3S)-1′-(Benzofuran-2-yl)-2′-(4-bromobenzoyl)-1′,2′,5′,5a′,6′,7′,8′,9′,9a′,9b′-decahydrospiro[indoline-3,3′-pyrrolo[2,1-a]isoindol]-2-one] the melting point was 118 to 120 °C.

`O=C(c1ccc(Cl)cc1)C1C(c2cc3ccccc3o2)C2C3CCCCC3CN2[C@@]12C(=O)Nc1ccc(Cl)cc12` (stereo partly drawn) [Compound 5o, (3S)-1′-(Benzofuran-2-yl)-5-chloro-2′-(4-chlorobenzoyl)-1′,2′,5′,5a′,6′,7′,8′,9′,9a′,9b′-decahydrospiro-[indoline-3,3′-pyrrolo[2,1-a]isoindol]-2-one] showed a melting point of 125 to 126 °C.

In the case of `O=C(c1ccc(Cl)cc1)C1C(c2cc3ccccc3o2)C2CSCN2[C@@]12C(=O)Nc1ccc(Cl)cc12` (stereo partly drawn) [Compound 5p, (3S)-7′-(Benzofuran-2-yl)-5-chloro-6′-(4-chlorobenzoyl)-1′,6′,7′,7a′-tetrahydro-3′H-spiro[indoline-3,5′-pyrrolo[1,2-c]thiazol]-2-one], the IC50 [1] is reported as 488 ± 1.11 µM, the “α-Amylase Selectivity” value [1] is reported as 0.80 and the melting point is reported as 105 to 106 °C. For the same compound, the IC50 [2] was 392.1 ± 1.07 µM and the “α-Glucosidase Selectivity” value [2] was 1.24.
